According to patent US9770026B2, “Substituted pyrimidine compound and uses thereof” (Shenyang Sinochem Agrochemicals R&D Co., Ltd., priority 2012, dated 2017):

Experiments:
corn rust = assay: protectant activity in vivo against corn rust
Diamond back moth = assay: insecticidal activity against diamond back moth, airbrush spray; format: in vivo; conditions: for control (test results against diamond back moth): mortality after 72 hrs
Method in brief: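 Airbrush leaf-disc spray test: both faces of 2 cm cabbage discs received 0.5 ml of test solution at 0.7 kg/cm^2. Solutions were made in acetone:methanol (1:1) and brought to concentration with 0.1% Tween 80 in water. Ten second-instar larvae per disc, triplicates, were held at 25° C and 60˜70% R.H., with mortality recorded at 72 hrs.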

[1] = test system: Green peach aphids (Myzus Persicae Sulzer); assay: bioactivity test against green peach aphid, airbrush foliar spray; format: in vivo; conditions: for Insecticidal activity against peach aphid (%): contrastive test
Method in brief: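 Death rate was scored at 48 hrs, held at 25±1 C and 60±5% RH, following airbrush foliar spray (0.5 mL, 10 psi) onto cabbage leaf discs bearing about 15-30 aphids. Test solutions: compound dissolved in 1:1 acetone:methanol, brought to concentration with 0.1% tween 80 water.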

armyworm = assay: bioactivity test against armyworm, airbrush spray; format: in vivo; conditions: for control (test results against armyworm): mortality after 72 h
wheat powdery mildew = assay: protectant activity in vivo against wheat powdery mildew
carmine spider mite = assay: bioactivity test against carmine spider mite, airbrush spray; format: in vivo; conditions: for control against carmine spider mite: mortality after 72 hrs
Method in brief: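 Broadbean seedlings infested with adult mites were sprayed with compound (acetone/methanol stock diluted in 0.1% Tween 80 water) by airbrush at 0.7 kg/cm^2, 0.5 ml. Three replicates were run. Mortality was scored after 72 hrs.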

[2] = 10 ppm, death rate after 48 hrs
[3] = 100 ppm, death rate after 48 hrs
[4] = 600 ppm, death rate after 48 hrs

SMILES: CCc1ncnc(NCCc2ccc(Oc3ccc(C(F)(F)F)cn3)cc2)c1Cl [Compound I-6757]
- protectant activity against corn rust in vivo (corn rust; 100 ppm): 100%
- protectant activity against corn rust in vivo (corn rust; 400 ppm): 100%
- control (test results against diamond back moth) (Diamond back moth; 100 ppm): 100%
- control (test results against diamond back moth) (Diamond back moth; 600 ppm): 100%
- Insecticidal activity against peach aphid (%) ([1]; 1.25 mg/L): 100%
- Insecticidal activity against peach aphid (%) ([1]; 2.5 mg/L): 100%
- Insecticidal activity against peach aphid (%) ([1]; 5 mg/L): 100%
- Insecticidal activity against peach aphid (%) ([1]; 10 mg/L): 100%
- Insecticidal activity against peach aphid (%) ([1]; 100 mg/L): 100%
- Insecticidal activity against peach aphid (%) ([1]; 600 mg/L): 100%
- control (test results against green peach aphid) ([1]; 2.5 ppm, death rate after 48 hrs): 100%
- control (test results against green peach aphid) [1, 2]: 100%
- control (test results against green peach aphid) [1, 3]: 100%
- control (test results against green peach aphid) [1, 4]: 100%
- pest or weed control at 5 ppm ([1]; Myzus persicae, foliar, 48 h, 5 ppm, death rate after 48 hrs): 100%
- control (test results against armyworm) (armyworm; 100 ppm): 100%
- control (test results against armyworm) (armyworm; 600 ppm): 100%
- pest or weed control at 10 µg/mL (armyworm; 72 h, 10 mg/L, read-out: Insecticidal activity against armyworm (%)): 28%
- pest or weed control at 100 µg/mL (armyworm; 72 h, 100 mg/L, read-out: Insecticidal activity against armyworm (%)): 100%
- pest or weed control at 600 µg/mL (armyworm; 72 h, 600 mg/L, read-out: Insecticidal activity against armyworm (%)): 100%
- protectant activity against wheat powdery mildew in vivo (wheat powdery mildew; 100 ppm): 100%
- protectant activity against wheat powdery mildew in vivo (wheat powdery mildew; 400 ppm): 100%
- Insecticidal activity against carmine spider mite (% ) (carmine spider mite; 2.5 mg/L): 75%
- Insecticidal activity against carmine spider mite (% ) (carmine spider mite; 5 mg/L): 80%
- control against carmine spider mite (carmine spider mite; 100 ppm): 100%
- control against carmine spider mite (carmine spider mite; 600 ppm): 100%
- pest or weed control at 10 µg/mL (carmine spider mite; Tetranychus cinnabarinus, 72 h, 10 mg/L, contrastive test, read-out: Insecticidal activity against carmine spider mite (% )): 97%
- pest or weed control at 100 µg/mL (carmine spider mite; Tetranychus cinnabarinus, 72 h, 100 mg/L, contrastive test, read-out: Insecticidal activity against carmine spider mite (% )): 100%
- pest or weed control at 600 µg/mL (carmine spider mite; Tetranychus cinnabarinus, 72 h, 600 mg/L, contrastive test, read-out: Insecticidal activity against carmine spider mite (% )): 100%

SMILES: Cc1ncnc(NCCc2ccc(Oc3ccc(Cl)cc3)cc2)c1Cl [II-19]
- protectant activity against corn rust in vivo (corn rust; 400 ppm): 100%
- Insecticidal activity against diamond back moth (%) (Diamond back moth; 10 mg/L): 50%
- Insecticidal activity against diamond back moth (%) (Diamond back moth; 100 mg/L): 100%
- Insecticidal activity against diamond back moth (%) (Diamond back moth; 600 mg/L): 100%
- control (test results against diamond back moth) (Diamond back moth; 100 ppm): 100%
- control (test results against diamond back moth) (Diamond back moth; 600 ppm): 100%
- Insecticidal activity against peach aphid (%) ([1]; 10 mg/L): 100%
- Insecticidal activity against peach aphid (%) ([1]; 100 mg/L): 100%
- Insecticidal activity against peach aphid (%) ([1]; 600 mg/L): 100%
- control (test results against green peach aphid) [1, 2]: 100%
- control (test results against green peach aphid) [1, 3]: 100%
- control (test results against green peach aphid) [1, 4]: 100%
- control (test results against armyworm) (armyworm; 600 ppm): 100%
- protectant activity against wheat powdery mildew in vivo (wheat powdery mildew; 400 ppm): 100%
- control against carmine spider mite (carmine spider mite; 100 ppm): 100%
- control against carmine spider mite (carmine spider mite; 600 ppm): 100%
